Each block holds one compound with its values, some of them ahead of it.
Columns and labels:
[1] = target: T1, GlcNAc-phosphotransferase (UDP-GlcNAc: lysosomal enzyme GlcNAc alpha 1-phosphotransferase) (Homo sapiens, UniProt Q3T906); experiment: radiometric transferase assay, QAE-Sephadex; format: biochemical; settings: normal liver homogenate, range of three preparations, Mn2+, Mg2+, ATP, pH 7.4, 37 °C
T1 construct: gene GNPTAB; native enzyme in 600 g supernatant of human normal liver homogenate (autopsy tissue), not purified; alpha/beta precursor is cleaved into alpha and beta chains (alpha2beta2gamma2); with N-acetylglucosamine-1-phosphotransferase subunit gamma
T1 sequence (Q3T906 1-928): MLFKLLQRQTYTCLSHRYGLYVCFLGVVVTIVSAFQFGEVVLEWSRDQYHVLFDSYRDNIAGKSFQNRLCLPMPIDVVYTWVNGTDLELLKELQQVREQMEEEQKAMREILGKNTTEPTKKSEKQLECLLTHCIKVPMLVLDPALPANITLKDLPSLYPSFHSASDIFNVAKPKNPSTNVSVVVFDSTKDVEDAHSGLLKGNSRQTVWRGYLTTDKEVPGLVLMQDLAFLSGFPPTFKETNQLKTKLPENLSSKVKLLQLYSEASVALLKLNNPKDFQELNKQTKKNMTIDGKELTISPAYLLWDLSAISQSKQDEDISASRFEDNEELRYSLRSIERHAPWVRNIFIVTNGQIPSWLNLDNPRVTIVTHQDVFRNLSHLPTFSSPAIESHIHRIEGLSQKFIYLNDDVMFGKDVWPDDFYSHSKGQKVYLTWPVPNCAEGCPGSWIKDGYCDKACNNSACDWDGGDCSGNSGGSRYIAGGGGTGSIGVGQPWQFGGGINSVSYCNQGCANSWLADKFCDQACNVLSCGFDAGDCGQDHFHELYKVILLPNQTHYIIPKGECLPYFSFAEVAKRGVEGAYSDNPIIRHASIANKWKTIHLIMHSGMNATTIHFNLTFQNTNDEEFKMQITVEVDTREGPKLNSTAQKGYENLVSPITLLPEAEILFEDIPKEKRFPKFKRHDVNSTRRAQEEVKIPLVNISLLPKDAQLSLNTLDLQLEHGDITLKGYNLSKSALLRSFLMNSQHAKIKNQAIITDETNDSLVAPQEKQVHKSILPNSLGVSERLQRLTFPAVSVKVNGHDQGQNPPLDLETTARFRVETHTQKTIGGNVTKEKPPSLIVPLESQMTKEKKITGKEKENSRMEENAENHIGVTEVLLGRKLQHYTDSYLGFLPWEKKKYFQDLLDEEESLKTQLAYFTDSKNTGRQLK
T1 sequence (Q3T906 929-1256): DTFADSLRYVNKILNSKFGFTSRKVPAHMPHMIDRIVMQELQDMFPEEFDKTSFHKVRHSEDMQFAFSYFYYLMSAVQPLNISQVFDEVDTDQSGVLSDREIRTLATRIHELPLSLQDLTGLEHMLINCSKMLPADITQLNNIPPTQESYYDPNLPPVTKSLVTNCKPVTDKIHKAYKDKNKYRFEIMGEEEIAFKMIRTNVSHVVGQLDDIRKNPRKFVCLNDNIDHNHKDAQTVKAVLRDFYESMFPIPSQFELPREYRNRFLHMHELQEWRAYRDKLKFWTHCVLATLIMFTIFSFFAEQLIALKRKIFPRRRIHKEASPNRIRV
T1 sequence (Q9UJJ9 25-305 partner): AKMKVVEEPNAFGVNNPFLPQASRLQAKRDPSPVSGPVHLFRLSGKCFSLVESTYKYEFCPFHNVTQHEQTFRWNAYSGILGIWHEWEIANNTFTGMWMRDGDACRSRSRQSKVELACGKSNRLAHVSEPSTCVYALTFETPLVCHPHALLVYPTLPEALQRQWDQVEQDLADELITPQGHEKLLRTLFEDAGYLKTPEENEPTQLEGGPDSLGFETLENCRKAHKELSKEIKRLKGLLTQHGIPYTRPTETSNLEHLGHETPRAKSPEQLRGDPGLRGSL

[2] = target: T2, phosphodiester glycosidase (phosphodiester alpha-N-acetylglucosaminidase) (Homo sapiens, UniProt Q9UK23); experiment: radiometric release of [3H]GlcNAc, QAE-Sephadex; format: biochemical; settings: liver homogenate; Triton X-100, N-acetylmannosamine, EDTA, pH 7.4, 37 °C; labelled compound
T2 construct: gene NAGPA; native enzyme in 600 g supernatant of human normal liver and hepatoma homogenates, not purified
T2 sequence (Q9UK23 50-515): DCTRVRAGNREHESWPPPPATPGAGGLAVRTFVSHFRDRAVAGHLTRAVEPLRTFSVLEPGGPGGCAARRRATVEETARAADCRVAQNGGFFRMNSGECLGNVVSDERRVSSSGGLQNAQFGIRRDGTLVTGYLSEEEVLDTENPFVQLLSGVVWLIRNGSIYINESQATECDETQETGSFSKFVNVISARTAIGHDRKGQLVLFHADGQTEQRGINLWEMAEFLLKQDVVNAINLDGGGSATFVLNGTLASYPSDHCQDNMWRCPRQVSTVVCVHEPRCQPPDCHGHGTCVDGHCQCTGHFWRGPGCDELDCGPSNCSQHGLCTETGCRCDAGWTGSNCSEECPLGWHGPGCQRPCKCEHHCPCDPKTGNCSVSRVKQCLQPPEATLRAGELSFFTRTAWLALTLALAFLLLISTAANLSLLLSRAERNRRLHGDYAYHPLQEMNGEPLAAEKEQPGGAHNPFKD

Km ([1]; acceptor alpha-methylmannoside, labelled compound): 0.027 to 0.037 mM
Compound: CC(=O)N[C@H]1[C@@H](OP(=O)(O)OP(=O)(O)OC[C@H]2O[C@@H](n3ccc(=O)[nH]c3=O)[C@H](O)[C@@H]2O)O[C@H](CO)[C@@H](O)[C@@H]1O [UDP-GlcNAc]

Km ([1]; co-substrate [beta-32P]UDP-GlcNAc): 50 to 100 mM
Compound: CO[C@H]1O[C@H](CO)[C@@H](O)[C@H](O)[C@@H]1O [alpha-methylmannoside]

Compound: CO[C@H]1O[C@H](COP(=O)(O)O[C@H]2O[C@H](CO)[C@@H](O)[C@H](O)[C@H]2NC(C)=O)[C@@H](O)[C@H](O)[C@@H]1O [[6-3H]GlcNAc-P-6-(alpha-methyl)mannoside]
radiometric release of [3H]GlcNAc, QAE-Sephadex [2]: amount of the labelled substrate used for the glycosidase assay was not sufficient to measure Km

From paper PMC1972543, “Elevated carbohydrate phosphotransferase activity in human hepatoma and phosphorylation of cathepsin D” (British Journal of Cancer, 1991)
